The text below walks through data of patent US20050042308A1, “Pharmaceutical composition having cholagogic and litholytic effect and its preparation method” (priority 2001, published 2005).

Series [1] relates to auricular swollen of mouse caused by dimethylbenzene. In words: Auricular inflammation of mouse caused by dimethylbenzene. The format is in vivo. Conditions: Eulektrol 0.15 ml/kg; Indothemacin 30 (mg).
In series [2] the test system is granuloma of rat. In words: Granuloma of rat caused by agar. Type of series: in vivo. The note with it: Prednisone 30 (mg). An excerpt: Thereinto, the inhibition effect of moderates high dose group is compared with control group, P<0.05, P<0.01 respectively, showing significant inhibition effect.
Series [3] concerns ankle swollen of rat caused by carragheen. Nature of the series: Ankle swollen of the rat caused by carragheen. Conditions: Eulektrol 0.15 ml/kg, Prednisone acetate 30(mg). The format is in vivo.
The test system of series [4] is bile secretion of the rat. In words: Cholagogue experiment in rat (bile efflux coefficient). Conditions: Eulektrol 0.150 ml/kg; for bile efflux coefficient before 1 hour: before drug administration, Cholanic acid 100 mg (pure substance), Dehydrogenized Cholanic acid 100 mg (pure substance) groups; for (%) increase of bile efflux coefficient compared with control group, after 1 hour / (%) increase of bile efflux coefficient compared with control group, after 2 hours / (%) increase of bile efflux coefficient compared with control group, after 3 hours / (%) increase of bile efflux coefficient compared with control group, after 4 hours / bile efflux coefficient after 1 hour / bile efflux coefficient after 2 hours / bile efflux coefficient after 3 hours / bile efflux coefficient after 4 hours: into duodenum, Cholanic acid 100 mg, Dehydrogenized Cholanic acid 100 mg (pure substance). The format is in vivo. The protocol:
After grouping, the experimental rats are fasting for 16 hours before experiment; anesthetize these rats through ip ethyl carbamate (also named Urethane). After anesthesia, enlace the four limbs; incise the abdomen to find the pylorus of the stomach. Along the pylorus, find common bile duct. Use little forceps to deliminate the surface envelope and reveal the common bile duct, ligate the lower extremity, carefully shear a little ventage, insert plastic duct with external diameter 1 mm into the common bile duct proximal to the liver to drain the bile. After bile drainage volume is stable, record the bile collection volume every 0.5 hour, for two times.

In series [5] the test system is bilirubin in bile. In words: The measure of bilirubin of bile. Type of series: in vivo. Conditions: cholanic acid 0.1(g), Eulektrol 0.15(g), Dehydrogenized cholanic acid 0.1(g).
Series [6] relates to gallbladder muscle stripe in vitro. In words: Gallbladder smooth muscle contraction caused by acetylcholine. Also on record: species or system guinea pig. The protocol: Krebs liquid culture plate, anatomize longitudinally to get 2 pieces of muscle stripe of gallbladder with 10 mm length and […] width. Place the muscle stripe into 37° C. constant temperature Mcrruary bath with Kmbs solution (20 ml), the lower end is fixed on the hook at the bottom of the bath, the upper end is connected to the energy transducer, adjust the oxygen flow gas bubble to tiny and uniform flow, the energy transducer is connected to physiological recorder with prepositive amplifier. Every time after adding test solution observes for more than 3 minutes. When reaching the biggest effect, timely rinse the bath with flushing solution three times with 15 minutes break. After the contraction curve becomes balanced, to make another experiment. […] Krebs solution should be prepared with double-distilled water). After adding acetylcholine, record the contraction curve of gallbladder muscle. From the contraction curve, we can see the amplitude of contraction curve rise. After contraction curve reaches peak-balance, add different concentration LDRS solution. After adding drug solution, the amplitude of contraction curve of gallbladder muscle stripe descends. Record the altitude of amplitude of every phase. The statistic method is below: before drug administration, from the upper and lower limit point of the amplitude contraction curve of gallbladder muscle stripe to respectively line a straight line parallel to the transverse coordinate axis, measure the altitude between the two parallel line as the normal amplitude (The lower line before drug administration is used as basal line). After contraction curve is stable, adding different concentration Ach solution, we can see the amplitude of contraction curve of gallbladder muscle stripe rise, through the peak of amplitude to line a straight line parallel to basal line and measure the altitude between the two parallel line as amplitude of Ach. After curve is stable, add different concentration LDRS stock solution and through the lowest point of amplitude to line parallel to basal line, measure the altitude between the basal line and the lowest line.

In series [7] the test system is fever of the rat. In words: Fever of the rat caused by 2, 4-dinitrophenol. Type of series: in vivo. The note with it: Aminopyrine 80(mg), Eulektrol 0.15 ml/kg. The protocol: Get […] healthy male rats with 1 80˜220 g body weight, randomly separate them into 6 groups according to the body weight with 8 rats in each group. The rats in the 1st group are forced to take 0.5% CMC 10 ml/kg. The rats in the 2nd group are forced to take aminopyrine […]. The rats in 3rd group are forced to take Eulektrol 0.15 ml /kg. The rats in the 4th, 5th, 6th are respectively forced to take LDRS 0.077 ml, 0.154 ml, […]. 15 minutes later after drug administration SC 25 mg/ml 2,4-dinitrophenol in the middle of shoulder and back, then measure the anal temperature in 0 hour before drug administration, 0.25 hours, 0.5 hours, 1 hours, 2 hours, 4 hours after drug administration.

Series [8] deals with cholelithiasis patients. The note with it: cited from earlier work.
The mark [9] stands for this setting: series with 8 muscle stripes, Ach 10^−4 ml alone, or LDRS (printed 10^−2 ml) added after Ach.
Setting [10] is: series with 13 muscle stripes, Ach 10^−4 ml alone, or LDRS 10^−2 ml added after Ach.

Structures are written as SMILES. Marks after values point to notes of the source that are not given here.

With `COc1ccc2c(c1)c(CC(=O)O)c(C)n2C(=O)c1ccc(Cl)cc1` [Indothemacin, indomethacin], in series [1], the “inhibition rate of auricular swelling” value is listed as 74.0%; the “the auricular weight difference between left and right” value is 3.98 ± 2.5 mg/100 g.
As for `CC(=O)OCC(=O)[C@@]1(O)CC[C@H]2[C@@H]3CCC4=CC(=O)C=C[C@]4(C)[C@H]3C(=O)C[C@@]21C` [Prednisone acetate], the average granuloma coefficient in series [2] stood at 0.20 ± 0.08. Further, in series [2], the “inhibition rate of granuloma coefficient” value was 69.2** %. Moreover, the size of ankle in series [3] (2 h after drug) is recorded as 2.34 ± 0.17 cm; in series [3] (4 h after drug), 2.10 ± 0.15 cm; in series [3] (8 h after drug), 1.90 ± 0.19 cm; in series [3] (16 h after drug) it was 2.10 ± 0.211 cm; in series [3] (20 h after drug), 2.00 ± 0.009 cm.
On to `C[C@H](CCC(=O)O)[C@H]1CC[C@H]2[C@@H]3C(=O)C[C@@H]4CC(=O)CC[C@]4(C)[C@H]3CC(=O)[C@]12C` [Dehydrogenized Cholanic acid, dehydrogenized cholanic acid], for which, in series [4], the “bile efflux coefficient before 1 hour” value was 0.116 ± 0.04 ml(bile)/100 g · bw; the “(%) increase of bile efflux coefficient compared with control group, after 1 hour” value was 5.8%; the “(%) increase of bile efflux coefficient compared with control group, after 2 hours” value was determined as 57.0%; the “(%) increase of bile efflux coefficient compared with control group, after 3 hours” value was 102.7%. Further, in series [4], the “(%) increase of bile efflux coefficient compared with control group, after 4 hours” value was 85.8%; the “bile efflux coefficient after 1 hour” value is 0.165 ± 0.08 ml(bile)/100 g · bw; the “bile efflux coefficient after 2 hours” value is listed as 0.234 ± 0.07 ml(bile)/100 g · bw; the “bile efflux coefficient after 3 hours” value is 0.223 ± 0.05 ml(bile)/100 g · bw. Further, the “bile efflux coefficient after 4 hours” value in series [4] was 0.210 ± 0.07 ml(bile)/100 g · bw. For the same compound, in series [5] (1 h), the D-bil in bile turned out to be 57.8 ± 12.8 mmol/L, the F-bil in bile was found to be 15.4 ± 4.9 mmol/L and the T-BIL in bile was found to be 73.1 ± 14.1 mmol/L. Further, in series [5] (2 h), the D-bil in bile amounted to 43.4 ± 15.5 mmol/L, the F-bil in bile was determined as 10.9 ± 11.2 mmol/L and the T-BIL in bile turned out to be 54.3 ± 23.9 mmol/L. In series [5] (3 h), this compound registered a D-bil in bile of 39.9 ± 10.2 mmol/L, a F-bil in bile of 8.16 ± 3.1 mmol/L and a T-BIL in bile of 48.1 ± 14.8 mmol/L. In series [5] (4 h), this compound registered a D-bil in bile of 45.7 ± 16.4 mmol/L, a F-bil in bile of 13.6 ± 5.69 mmol/L and a T-BIL in bile of 59.3 ± 19.7 mmol/L.
`CC(=O)OCC[N+](C)(C)C` [Ach, acetylcholine]: in series [6] (setting [9]), the gallbladder contraction amplitude is recorded as 32.73 ± 6.90 mm and the “variation rate of amplitude (normal value = 100.0)” value stood at 654.6%. In series [6] (setting [10]), the gallbladder contraction amplitude worked out at 35.2 ± 6.84 mm and the “variation rate of amplitude (normal value = 100.0)” value turned out to be 541.5%.
`Cc1c(N(C)C)c(=O)n(-c2ccccc2)n1C` [Aminopyrine, aminopyrine]: the “the body temperature variation after drug administration” value is −0.21 ± 0.52 °C in series [7] (0.25 h); −0.05 ± 0.81 °C in series [7] (0.5 h); 0.03 ± 0.79 °C in series [7] (1 h); 0.49 ± 0.47 °C in series [7] (2 h); 0.30 ± 0.67 °C in series [7] (4 h).
In the case of `C[C@H](CCC(=O)O)[C@H]1CC[C@H]2[C@@H]3CCC4CCCC[C@]4(C)[C@H]3CC[C@]12C` (some centres unmarked) [Cholanic acid, cholanic acid], in series [4], the “bile efflux coefficient before 1 hour” value was 0.116 ± 0.04 ml(bile)/100 g · bw; the “(%) increase of bile efflux coefficient compared with control group, after 1 hour” value was found to be 6.4%; the “(%) increase of bile efflux coefficient compared with control group, after 2 hours” value came out at 26.8%; the “(%) increase of bile efflux coefficient compared with control group, after 3 hours” value is 123.6%. In series [4], the “(%) increase of bile efflux coefficient compared with control group, after 4 hours” value amounted to 45.1%; the “bile efflux coefficient after 1 hour” value is reported as 0.166 ± 0.04 ml(bile)/100 g · bw; the “bile efflux coefficient after 2 hours” value is recorded as 0.189 ± 0.05 ml(bile)/100 g · bw; the “bile efflux coefficient after 3 hours” value is on record as 0.246 ± 0.04 ml(bile)/100 g · bw. Moreover, the “bile efflux coefficient after 4 hours” value in series [4] was 0.164 ± 0.04 ml(bile)/100 g · bw. In series [5] (1 h), this compound gave a D-bil in bile of 67.3 ± 25.4 mmol/L, a F-bil in bile of 26.7 ± 20.1 mmol/L and a T-BIL in bile of 94.1 ± 37.9 mmol/L. In series [5] (2 h), this compound showed a D-bil in bile of 60.8 ± 31.9 mmol/L, a F-bil in bile of 16.9 ± 12.8 mmol/L and a T-BIL in bile of 77.7 ± 38.9 mmol/L. In series [5] (3 h), this compound had a D-bil in bile of 55.3 ± 18.2 mmol/L, a F-bil in bile of 27.2 ± 13.9 mmol/L and a T-BIL in bile of 82.5 ± 29.0 mmol/L. Besides, in series [5] (4 h), the D-bil in bile is given as 53.0 ± 31.6 mmol/L, the F-bil in bile is 28.3 ± 10.6 mmol/L and the T-BIL in bile was 81.3 ± 29.8 mmol/L. Besides, the “efficacy of the therapeutics (reducing the gallstone size, dissolving the gallstone or decreasing the gallstone)” value in series [8] (clinical case report) is “about 50%”. Besides, the “patients with SGOT increase” value in series [8] (treatment of the cholelithiasis) is 20%.
